Test results published in PubChem BioAssay AID1918991 (Molecular Pharmacology Branch, DTP, NCI, 2023).
pIC50: −log10 of the molar value.

System: 186277-243-T-J2-PDC complex spheroid growth
Assay: Anticancer human tumor 186277-243-T-J2-PDC patient-derived colon adenocarcinoma cell line growth inhibition [AhR]
Settings: for pIC50: curve of first compound; for viability, T/C: stronger effect = lower value
Method in brief: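 Agents were dosed in half-log steps down from roughly clinical Cmax, or from 10 microM where Cmax was unknown, alone and with AhR antagonists. Read-out: percent test/control growth of tumor spheroids containing HUVEC and MSC stromal cells.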

[1] = second compound 0.1 µM, first compound 0.0316 µM
[2] = second compound 0.1 µM, first compound 0.1 µM
[3] = second compound 0.316 µM, first compound 0.0316 µM
[4] = second compound 0.316 µM, first compound 0.1 µM
[5] = second compound 1 µM, first compound 0.0316 µM
[6] = second compound 1 µM, first compound 0.1 µM
[7] = second compound 3.16 µM, first compound 0.0316 µM
[8] = second compound 3.16 µM, first compound 0.1 µM
[9] = second compound 10 µM, first compound 0.0316 µM
[10] = second compound 10 µM, first compound 0.1 µM
[11] = second compound 0.1 µM, first compound 0.316 µM
[12] = second compound 0.1 µM, first compound 1 µM
[13] = second compound 0.1 µM, first compound 3.16 µM
[14] = second compound 0.1 µM, first compound 10 µM
[15] = second compound 0.316 µM, first compound 0.316 µM
[16] = second compound 0.316 µM, first compound 1 µM
[17] = second compound 0.316 µM, first compound 3.16 µM
[18] = second compound 0.316 µM, first compound 10 µM
[19] = second compound 1 µM, first compound 0.316 µM
[20] = second compound 1 µM, first compound 1 µM
[21] = second compound 1 µM, first compound 3.16 µM
[22] = second compound 1 µM, first compound 10 µM
[23] = second compound 3.16 µM, first compound 0.316 µM
[24] = second compound 3.16 µM, first compound 1 µM
[25] = second compound 3.16 µM, first compound 3.16 µM
[26] = second compound 3.16 µM, first compound 10 µM
[27] = second compound 10 µM, first compound 0.316 µM
[28] = second compound 10 µM, first compound 1 µM
[29] = second compound 10 µM, first compound 3.16 µM
[30] = second compound 10 µM, first compound 10 µM
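Also: spheroids exposed to compounds for seven days before the viability read.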
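For viability, T/C in this document: luminescent signal used as a stand-in for viable cell amount; 100% = DMSO vehicle control wells.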

CC[C@@]1(O)C(=O)OCc2c1cc1n(c2=O)Cc2cc3c(CN(C)C)c(O)ccc3nc2-1 + Cc1ccccc1N=Nc1ccc(NC(=O)c2ccnn2C)c(C)c1
pIC50 (second compound 0.1 µM): < 7.00
pIC50 (second compound 0.316 µM): < 7.00
pIC50 (second compound 1 µM): < 7.00
pIC50 (second compound 3.16 µM): < 7.00
pIC50 (second compound 10 µM): < 7.00
viability, T/C (second compound 0.1 µM, first compound 0.000316 µM): 97.7%
viability, T/C (second compound 0.1 µM, first compound 0.001 µM): 113%
viability, T/C (second compound 0.1 µM, first compound 0.00316 µM): 107%
viability, T/C (second compound 0.1 µM, first compound 0.01 µM): 133%
viability, T/C [1]: 119%
viability, T/C [2]: 113%
viability, T/C (second compound 0.316 µM, first compound 0.000316 µM): 113%
viability, T/C (second compound 0.316 µM, first compound 0.001 µM): 101%
viability, T/C (second compound 0.316 µM, first compound 0.00316 µM): 113%
viability, T/C (second compound 0.316 µM, first compound 0.01 µM): 115%
viability, T/C [3]: 114%
viability, T/C [4]: 105%
viability, T/C (second compound 1 µM, first compound 0.000316 µM): 97.8%
viability, T/C (second compound 1 µM, first compound 0.001 µM): 103%
viability, T/C (second compound 1 µM, first compound 0.00316 µM): 110%
viability, T/C (second compound 1 µM, first compound 0.01 µM): 123%
viability, T/C [5]: 116%
viability, T/C [6]: 119%
viability, T/C (second compound 3.16 µM, first compound 0.000316 µM): 94.9%
viability, T/C (second compound 3.16 µM, first compound 0.001 µM): 92.9%
viability, T/C (second compound 3.16 µM, first compound 0.00316 µM): 116%
viability, T/C (second compound 3.16 µM, first compound 0.01 µM): 135%
viability, T/C [7]: 107%
viability, T/C [8]: 104%
viability, T/C (second compound 10 µM, first compound 0.000316 µM): 81.8%
viability, T/C (second compound 10 µM, first compound 0.001 µM): 92.2%
viability, T/C (second compound 10 µM, first compound 0.00316 µM): 98.1%
viability, T/C (second compound 10 µM, first compound 0.01 µM): 117%
viability, T/C [9]: 90.5%
viability, T/C [10]: 99.3%

COc1cc(C2c3cc4c(cc3C(OC3OC5COC(C)OC5C(O)C3O)C3COC(=O)C23)OCO4)cc(OC)c1O (stereo not given) + Cc1ccccc1N=Nc1ccc(NC(=O)c2ccnn2C)c(C)c1
pIC50 (second compound 0.1 µM): 5.05
pIC50 (second compound 0.316 µM): 5.11
pIC50 (second compound 1 µM): 5.12
pIC50 (second compound 3.16 µM): 5.14
pIC50 (second compound 10 µM): 5.13
viability, T/C [1]: 87.1%
viability, T/C [2]: 103%
viability, T/C [11]: 142%
viability, T/C [12]: 99.7%
viability, T/C [13]: 81%
viability, T/C [14]: 46.5%
viability, T/C [3]: 98.5%
viability, T/C [4]: 117%
viability, T/C [15]: 145%
viability, T/C [16]: 96.1%
viability, T/C [17]: 78.6%
viability, T/C [18]: 42%
viability, T/C [5]: 113%
viability, T/C [6]: 124%
viability, T/C [19]: 144%
viability, T/C [20]: 93.6%
viability, T/C [21]: 76.2%
viability, T/C [22]: 41.7%
viability, T/C [7]: 94.8%
viability, T/C [8]: 106%
viability, T/C [23]: 137%
viability, T/C [24]: 94.6%
viability, T/C [25]: 72.8%
viability, T/C [26]: 41.2%
viability, T/C [9]: 102%
viability, T/C [10]: 104%
viability, T/C [27]: 118%
viability, T/C [28]: 93.6%
viability, T/C [29]: 71.7%
viability, T/C [30]: 42.4%

Nc1ccn(C2OC(CO)C(O)C2(F)F)c(=O)n1 (stereo not given) + Cc1ccccc1N=Nc1ccc(NC(=O)c2ccnn2C)c(C)c1
pIC50 (second compound 0.1 µM): > 7.50
pIC50 (second compound 0.316 µM): > 7.50
pIC50 (second compound 1 µM): > 7.50
pIC50 (second compound 3.16 µM): > 7.50
pIC50 (second compound 10 µM): > 7.50
viability, T/C [1]: 16.6%
viability, T/C [2]: 15.3%
viability, T/C [11]: 14.9%
viability, T/C [12]: 16.3%
viability, T/C [13]: 18.7%
viability, T/C [14]: 17.1%
viability, T/C [3]: 14.9%
viability, T/C [4]: 14.5%
viability, T/C [15]: 16.5%
viability, T/C [16]: 18%
viability, T/C [17]: 17.4%
viability, T/C [18]: 17.4%
viability, T/C [5]: 16%
viability, T/C [6]: 16%
viability, T/C [19]: 16.4%
viability, T/C [20]: 17%
viability, T/C [21]: 18.3%
viability, T/C [22]: 19.4%
viability, T/C [7]: 14.6%
viability, T/C [8]: 13%
viability, T/C [23]: 15.7%
viability, T/C [24]: 15.3%
viability, T/C [25]: 17.1%
viability, T/C [26]: 17.1%
viability, T/C [9]: 16%
viability, T/C [10]: 15.9%
viability, T/C [27]: 16.6%
viability, T/C [28]: 17.8%
viability, T/C [29]: 18%
viability, T/C [30]: 18.8%
